Data on four compounds can be found in article PMC5164911, “Comparative Analysis of the Interaction between Different Flavonoids and PDIA3” (Oxidative Medicine and Cellular Longevity, 2016).

Like-named read-outs stand apart in the source and are kept apart here.

In experiment [1] the target is T1, PDIA3 (Homo sapiens, UniProt P30101).
T1 construct: made in house; host or cells: E. coli BL21 (vector pET21)
T1 sequence (P30101 25-505): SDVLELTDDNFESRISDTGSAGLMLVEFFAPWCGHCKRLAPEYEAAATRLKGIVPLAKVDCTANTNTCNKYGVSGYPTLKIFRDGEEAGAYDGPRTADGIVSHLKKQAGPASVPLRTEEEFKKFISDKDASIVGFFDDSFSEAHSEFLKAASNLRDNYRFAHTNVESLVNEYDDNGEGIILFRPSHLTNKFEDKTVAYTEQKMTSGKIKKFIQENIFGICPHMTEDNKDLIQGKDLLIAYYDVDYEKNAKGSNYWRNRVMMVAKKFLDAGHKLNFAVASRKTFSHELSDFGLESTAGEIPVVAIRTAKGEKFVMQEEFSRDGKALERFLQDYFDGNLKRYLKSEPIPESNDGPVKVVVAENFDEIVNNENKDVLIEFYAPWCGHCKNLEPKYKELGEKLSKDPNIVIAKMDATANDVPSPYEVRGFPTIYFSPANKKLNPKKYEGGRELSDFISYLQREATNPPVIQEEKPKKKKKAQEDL
Set-up: method as in Trnková et al. [30]. To be noted: Figure 8, unit inferred; ref Trnková et al. [30]; read-out: Dissociation constant (Kd); cited from earlier work.

Experiment [2] has as its target T1, PDIA3. To be noted: cited from earlier work.
For experiment [3], the target named is T1, PDIA3. To be noted: cited from earlier work. This is another data set of the same source.
Experiment [4] has as its target T1, PDIA3. Briefly: Fluorescence quenching titration of PDIA3 intrinsic fluorescence. Type of experiment: binding. To be noted: for Stern-Volmer constant (K SV): 0.5∗10^−6 M PDIA3 in reduced conditions, pH 7.4, 25°C, flavonoid 0 to 10∗10^−6 M, mean and standard deviation; for bimolecular quenching rate constant (K q): K SV = K q τ0 with τ0 of the order of 10^−8 s; for binding constant (K b): equation of Bi et al., reiterative calculation of Sun et al. As for the experimental part:
Quantitative analysis of the interaction between individual flavonoids and PDIA3 was performed by fluorimetric titration. […] Briefly, solution of PDIA3 (0.5 μM) or a and a′ domains (1 μM) in phosphate buffered saline (PBS) containing DTT 0.1 mM and EDTA 0.2 mM were titrated in quartz cuvette by stepwise additions, at 5 min time intervals, of individual flavonoid solution (1 mM in PBS/ethanol 50 : 50 v/v freshly prepared from a 20 mM stock solution in DMSO). […] To minimize the inner-filter effect we limited the highest concentration reached in the titration test up to 10 μM. All experiments were carried out at 25°C. Each spectrum was the mean of three repeated scans. Fluorescence spectra of appropriate blanks (flavonoids without proteins) were recorded under the same experimental conditions and subtracted from the corresponding flavonoid-protein system to correct the fluorescence background.
Quenching analysis was performed on PDIA3 (0.5 μM), in the reduced form, by adding stepwise increasing concentration of each molecule and recording the protein fluorescence spectra. For some flavonoids the analysis was extended to isolate a′ domain (1 μM), always in the reduced form. […] For each ligand molecule the Stern-Volmer quenching constant was obtained by linear regression of plots of F 0/F versus [L].
The Stern-Volmer quenching constant may be expressed as K SV = K q τ 0, where K q is the quencher rate coefficient and τ 0 is the average lifetime of the emissive excited state of the protein in the absence of the quencher.
The number of binding sites (n) and the binding constant (K b) were obtained by plotting log((F 0 − F)/F) versus log(1/([L t] − n(F 0 − F)[P t]/F 0)) using the reiterative calculation process described by Sun et al., assuming a similar affinity for each binding site.

In experiment [5] the target is T1, PDIA3. Briefly: Differential scanning fluorimetry (thermal stability, SYPRO Orange). The format is binding. To be noted: 50 μM flavonoid, reduced PDIA3 1 μM. As for the experimental part: Protein stability was tested by the fluorescence-based thermal stability assay or differential scanning fluorimetry (DSF) developed by Pantoliano and coworkers. DSF records the fluorescence emission signal from the binding of a dye (SYPRO orange) to the exposed hydrophobic patches upon protein unfolding. Fluorescence measurements were performed using a CFX96 Connect RT-PCR instrument (BioRad). 18 μl aliquots of protein solution (1 μM), freshly diluted in Tris Buffered saline (50 mM TrisHCl, pH 8.0, 150 mM NaCl) containing 0.1 mM DTT, 0.2 mM EDTA, and 1 : 1000 dilution of SYPRO Orange (50 mM stock solution in DMSO), were distributed in a 96-well plate. Sample wells were addition of increasing concentration (up to 50 μM) of individual flavonoid by adding 2 μl of 10-fold concentrated stock solutions freshly prepared. As control, the protein solution was added with 2 μl of the dilution buffer. A melting point analysis was recorded increasing the temperature from 20 to 95°C with an increment of 0.5°C and reading, at each temperature, the fluorescence in fluorescence resonance energy transfer mode (FRET). Each measure was the average of three sample wells reading and each DSF experiment was repeated at least three times. To calculate T m values, DSF data from the melting curve were exported and fitted to Boltzman equation using GraphPad software. Effect of flavonoids was evaluated comparing the T m values in presence and absence of each molecule.

Experiment [6] has as its target T1, PDIA3. Nature of the experiment: Disulfide reductase activity with DiE-GSSG fluorogenic probe. Type of experiment: biochemical. To be noted: DiE-GSSG substrate; for Inhibition of disulfide reductase (redox) activity: 20 μM flavonoid (Figure 7). As for the experimental part: Disulfide reductase activity of ERp57 was monitored by sensitive fluorescent assay using dieosin glutathione disulfide (DiE-GSSG) as fluorogenic probe. DiE-GSSG was synthesized by the reaction of eosin isothiocyanate with oxidized glutathione (GSSG) according to the method of Raturi and Mutus with some modifications. DiE-GSSG concentration was determined spectrophotometrically (ℇ 525 = 88,000 M^-1 cm^−1). Disulfide reductase activity was assayed in a reaction buffer containing 2 mM EDTA, 150 nM DiE-GSSG, and 5 μM DTT in PBS. A 20 μl aliquot of a stock solution of PDIA3 (1 μM) was added to the reaction mixture and DiE-GSSG reduction was monitored at 545 nm with excitation at 520 nm, at 25°C with continuous stirring. Reductase activity was calculated as the initial velocity in fluorescence increase. To test the effect of flavonoids on PDIA3 activity, the protein stock solution was previously incubated for 15 minutes at room temperature with different concentrations of each flavonoid and then a 20 μl aliquot subjected to assay in a reaction buffer containing the same concentration of the flavonoid.
Fluorescence quenching constant (K SV) values were given as means ± standard deviation and values of disulfide reductase activity were expressed in % of control sample ± relative standard deviation. All measurements were performed at least three times. Dunnett's test was used to compare the obtained reductase activity data with the activity of the untreated protein and a p value of <0.01 was considered as statistically significant.

In experiment [7] the target is T1, PDIA3. Briefly: DNA binding activity by EMSA. To be noted: flavonoid 0 to 50 μM. Type of experiment: biochemical. As for the experimental part: EMSA assay was performed using a 79-bp […] obtained by PCR as previously described. Amplified DNA was end-labeled by using 5-fluorescein-modified primers. 10 ng of DNA fragment was incubated with 1 μg of PDIA3 or a′ domain, in presence of increasing concentration of flavonoids (from 0 to 50 μM). Controls were performed using DNA alone and in the presence of each flavonoid. All tests were performed in 20 μl mixtures containing 20 mM Tris-HCl, pH 7.5, 50 mM NaCl, and 10% (v/v) glycerol. Samples were incubated for 1 hour at 25°C and then resolved on 5% polyacrylamide gels in 0,25% TBE buffer (22.5 mM Tris-borate, 5 mM EDTA, pH 8.3) at 150 V. Gel images were recorded using a ChemiDoc MP Imaging System (BioRad) equipped with an epi-blue excitation lamp and a 520 nm emission filter.
In general terms: A gel shift assay detects complexes by their altered migration in electrophoresis.

For experiment [8], the target named is PDIA3. On the set-up: method as in PMID 24530445. To be noted: cited from earlier work.
[9] abbreviates: K d = 1/K b, reduced PDIA3, pH 7.4, 25°C, read-out: dissociation constant (K d).

On to `O=C(OC1Cc2c(O)cc(O)cc2OC1c1cc(O)c(O)c(O)c1)c1cc(O)c(O)c(O)c1` (centres unmarked) [Epigallocatechin gallate, epigallocatechin gallate], for which the Kd at PDIA3 [1] is 45.8 µM. The “Inhibition of redox activity (%)” value on PDIA3 [2] (Figure 8, ref Trnková et al. [30]) is reported as 21%. For the same compound, the “Effect on DNA binding” value at PDIA3 [3] (ref Trnková et al. [30]) was “Inhibition”.

For `O=c1c(O)c(-c2ccc(O)cc2O)oc2cc(O)cc(O)c12` [Morin, morin], the “Stern-Volmer constant (K SV)” value on PDIA3 [4] is 24063 ± 265 M⁻¹. At PDIA3 [4] (reduced PDIA3, pH 7.4, 25°C), the “bimolecular quenching rate constant (K q)” value is 2.41e+12 M⁻¹ s⁻¹ and the “binding constant (K b)” value was 25600 M⁻¹. Besides, the Kd on PDIA3 [4] (setting [9]) amounted to 39 µM. In addition, the “Increase in melting temperature (T m) of PDIA3” value at PDIA3 [5] is listed as “increased more than three degrees”. Moreover, at PDIA3 [6], the “Inhibition of disulfide reductase (redox) activity” value is listed as “approximately 20%” and the “Effect on disulfide reductase activity (in words)” value is recorded as “some inhibitory effect”.

For `O=c1c(O)c(-c2ccc(O)c(O)c2)oc2cc(O)cc(O)c12` [Quercetin, quercetin], the “Stern-Volmer constant (K SV)” value at PDIA3 [4] turned out to be 46226 ± 1406 M⁻¹. In addition, the Kd on PDIA3 [4] (Figure 8, no unit printed in the picture, read-out: Dissociation constant (Kd)) came out at 25.6 µM; at PDIA3 [4] (setting [9]), 25.6 µM. Besides, at PDIA3 [4] (reduced PDIA3, pH 7.4, 25°C), the “bimolecular quenching rate constant (K q)” value turned out to be 4.62e+12 M⁻¹ s⁻¹. The “binding constant (K b)” value at PDIA3 [4] (reduced PDIA3, pH 7.4, 25°C) was 39000 M⁻¹. Besides, the “Increase in melting temperature (T m) of PDIA3” value on PDIA3 [5] is “increased more than three degrees”. Further, the “Inhibition of disulfide reductase (redox) activity” value is 18% on PDIA3 [6] and “approximately 20%” on PDIA3 [6] (listed as quercetin). The “Effect on disulfide reductase activity (in words)” value on PDIA3 [6] is “some inhibitory effect”. Moreover, on PDIA3 [7], the “Effect on DNA binding activity of PDIA3” value is “None”.

For the compound `COc1cc(C2Oc3cc([C@H]4Oc5cc(O)cc(O)c5C(=O)[C@@H]4O)ccc3OC2CO)ccc1O` (some centres unmarked) [silibinin], on PDIA3 [2], the “Effect on redox activity of PDIA3” value is given as “no effect”. Moreover, the “Effect on DNA binding capability of PDIA3” value at PDIA3 [3] is recorded as “no effect”. Besides, on PDIA3 [8], the dissociation constant result is “within micromolar range”.
